# Measurements from PMC4205289, “Triptolide inhibits human immunodeficiency virus type 1 replication by promoting proteasomal degradation of Tat protein” (Retrovirology, 2014).
# Like-named read-outs stand apart in the source and are kept apart here.
# Assays:
# Format in all cases: cell-based
# HIV-1 mRNA = experiment: Reverse-transcription PCR of viral mRNA (Gag region) in infected Jurkat cells; conditions: HIV-1 NL4-3 MOI 0.5, 12 h post-infection, 118-D-24 50 μM, flavopiridol 20 nM, triptolide 5 nM
# Protocol: The effects of the test compounds on HIV-1 proviral DNA and mRNA synthesis were analyzed by PCR. Jurkat cells were grown in 24-well plates and infected with the HIV-1 NL4-3 strain at an MOI of 0.5, and then test compounds were added at the desired concentrations. After incubation for 12 h, genomic DNA and mRNA from the infected cells were isolated using a Genomic DNA Mini Preparation Kit (Beyotime, China) and TRIzol reagent (Invitrogen Life Technologies), respectively. Nested PCR was used for the amplification of integrated proviral DNA, as previously described. To determine viral mRNA expression levels, 1 μg of RNA was treated with RQ1 RNase-Free DNase (Promega) and reverse transcribed using M-MLV Reverse Transcriptase (Promega) and random primers (Promega). An aliquot of cDNA was used as template for amplification of the HIV-1 Gag region as described elsewhere. […]
# All of the PCR products were visualized on a UV transilluminator in 2% agarose gels stained with ethidium bromide. In preliminary experiments, the exponential range of the PCR amplification curve was determined for all of the PCR products by varying the amount of input DNA and the number of PCR cycles. Based on these experiments, appropriate conditions were chosen to perform semi-quantitative PCRs.
# GFP = experiment: Western blot of GFP expressed from pEF1-GFP in HeLa cells; conditions: 48 h
# Protocol: (§1) Figure 5 Triptolide specifically reduces steady-state level of Tat protein. (A) HeLa cells were transfected with pEF1-FLAG-Tat in the presence of increasing concentrations of triptolide. Cells were harvested 48 h post-transfection, and protein expression levels were determined by Western blotting. (B) HeLa cells were transfected either with pEF1-GFP (left) or pEF1-Tat-GFP (right) in the presence of increasing concentrations of triptolide. Cells were harvested 48 h post-transfection, and protein expression levels were determined by Western blotting.
# (§2) Cells were washed with phosphate buffered saline (PBS) and lysed with radio immunoprecipitation assay lysis buffer supplemented with complete mini protease inhibitor cocktail (Roche) at 4°C for 1 h. Proteins from cell lysates were separated by SDS-PAGE and transferred to polyvinylidene difluoride membranes. After overnight incubation with primary antibodies at 4°C, each blot was probed with horseradish peroxidase-conjugated secondary antibody. Immunoreactive signals were detected with an enhanced chemiluminescence substrate (Thermo Scientific) using an AlphaEaseH FC Imaging System (Alpha Innotech Corporation).
# Tat-GFP fusion protein = experiment: Western blot of Tat-GFP fusion proteins in HeLa cells; conditions: 48 h
# Protocol: as §1
# Figure 7 N-terminal domains are required for triptolide to reduce Tat steady-state levels. (A) Schematic diagram of domains of HIV-1 Tat. (B) The effects of triptolide on steady-state levels of Tat mutants. […] Cells were harvested 48 h post-transfection, and protein expression levels were determined by Western blotting. […] Cells were harvested 48 h post-transfection, and protein expression levels were determined by Western blotting. […] At 48 h post transfection, the nucleus and cytoplasm were fractionated using NE-PER nuclear and cytoplasmic extraction reagent, and protein expression levels were determined by Western blotting. […] Cells were harvested 48 h post-transfection, and protein expression levels were determined by Western blotting. […]
# HIV-1 BaL = experiment: PBMC antiviral assay, p24 ELISA; conditions: for EC50: Human immunodeficiency virus 1, BAL, PBMC, 144 h, p24, day 6 post-infection; for selectivity ratio at 6 days: human, read-out: SI (selective index, CC50/EC50)
# CDK9 = experiment: Western blot of endogenous protein in HeLa cells; conditions: in the presence of triptolide, Western blotting
# Protocol: as §1, with “(A)” for “Figure 5 Triptolide specifically reduces steady-state level of Tat protein. (A)”
# as §2
# cyclin T1 = experiment: Western blot of endogenous protein in HeLa cells; conditions: in the presence of triptolide, Western blotting
# Protocol: as §1, with “(A)” for “Figure 5 Triptolide specifically reduces steady-state level of Tat protein. (A)”
# as §2
# HIV-1-Luc = experiment: microbe, parasite or virus in culture
# Protocol: In the antiviral assay with the HIV-1 reporter virus, Jurkat cells were seeded at a density of 2 × 10^4 cells per well in 96-well tissue culture plates and infected with HIV-1-Luc at an MOI of 0.5 in the presence or absence of the test compounds. At 48 h post-infection, luciferase activity in the cells was determined and EC50 values were calculated as described above.
# HIV-1 LAI = experiment: PBMC antiviral assay, p24 ELISA; conditions: for EC50: Human immunodeficiency virus 1, PBMC, 144 h, p24, day 6 post-infection; for selectivity ratio at 6 days: human, read-out: SI (selective index, CC50/EC50)
structure (smiles),measurement,setting,value
CC(C)[C@]12O[C@H]1[C@@H]1O[C@]13[C@]1(O[C@H]1C[C@H]1C4=C(CC[C@@]13C)C(=O)OC4)[C@@H]2O [triptolide],effect on viral mRNA synthesis,HIV-1 mRNA,repress viral mRNA synthesis
same,expression level of GFP,GFP,not reduced
same,activity on fusion protein of Tat basic domain with GFP (Tat49–57-GFP),Tat-GFP fusion protein; pEF1-Tat49–57-GFP,not sufficient to mediate the susceptibility to triptolide
same,steady-state level of Tat-GFP,Tat-GFP fusion protein; pEF1-Tat-GFP,reduced the steady-state levels of Tat-GFP dose-dependently
same,EC50,HIV-1 BaL; PBMC donor A,1.4 nM
same,EC50,HIV-1 BaL; PBMC donor B,1.6 nM
same,EC50,HIV-1 BaL; PBMC donor C,1 nM
same,selectivity ratio at 6 days,HIV-1 BaL; PBMC donor A,9
same,selectivity ratio at 6 days,HIV-1 BaL; PBMC donor B,9.6
same,selectivity ratio at 6 days,HIV-1 BaL; PBMC donor C,11.2
same,expression level of endogenous CDK9,CDK9,remained unchanged
same,expression level of endogenous cyclin T1,cyclin T1,remained unchanged
same,EC50,"HIV-1-Luc; Human immunodeficiency virus 1, Jurkat, 48 h",0.45 nM
same,selectivity ratio at 48 h,"HIV-1-Luc; human, HIV-1-Luc, Jurkat, read-out: SI (selective index, CC50/EC50)",30.9
same,EC50,HIV-1 LAI; PBMC donor A,1.5 nM
same,EC50,HIV-1 LAI; PBMC donor B,1.2 nM
same,EC50,HIV-1 LAI; PBMC donor C,1.5 nM
same,selectivity ratio at 6 days,HIV-1 LAI; PBMC donor A,8.4
same,selectivity ratio at 6 days,HIV-1 LAI; PBMC donor B,12.8
same,selectivity ratio at 6 days,HIV-1 LAI; PBMC donor C,7.5
